Test results: patent US20210363254A1, “PHARMACEUTICAL COMBINATIONS” (Novartis AG, priority 2018, published 2021)
Read-outs that look alike come from different tables or passages of the source.

What was measured:
[1] = system: immune cells in Colon 26 tumors; assay: Immune profiling of Colon 26 tumors and draining lymph nodes by flow cytometry (7628 and 8063 Colon 26-XPD); format: in vivo, mouse; conditions: 40 mg/kg every 3h for 3 times on days 0 and 7
Experimental: HDM201 modulated profiles of immune cells in Colon 26 tumors. Increases in % CD11c^+/CD45^+ myeloid cells (A), % CD8^+/CD45^+ T cells (B), PDL1 MFI in CD45^− cells (C), and % PD1^+/CD45^+ lymphocytes (d). Colon 26 cells were implanted into the right flank of Balb/c mice. When tumors reached ˜60 mm^3, mice were randomized and treated with HDM201 at 40 mg/kg every 3h for 3 times on days 0 and 7. Mice were euthanized, and tumors were collected and processed for FACS analysis on Days 5 and 12 post first dose.
HDM201 modulated profiles of immune cells in Colon 26 tumors. Increases in % CD103^+CD11c^+ DCs (A), % Tbet*EOMES-CD8+/CD45^+ T cells (B), and CD8/Treg ratio (C). Colon 26 Cells were implanted into right flank of Balb/c mice. When tumors reached ˜100 mm^3, mice were randomized and treated with HDM201 at 40 mg/kg every 3h for 3 times on days 0 and 7. Mice were euthanized; tumors and draining lymph nodes were collected and processed for FACS analysis on Days 5 and 12 post first dose.
Colon 26 cells were harvested at 80-95% confluence, washed, and re-suspended in cold PBS at a concentration of 2×10^6 cells/ml. Finally, 0.2×10^6 cells in a total volume of 100 μL were implanted subcutaneously (sc) into the upper right flank of naive Balb/c mice.
The tumor infiltrating lymphocytes (TILs) from tumors were analyzed by flow cytometry for both studies ([…] Colon 26-XPD and 8063 Colon 26-XPD). Lymph node lymphocytes were analyzed for 8063 Colon 26-XPD. The samples were plated into two separate 96 well plates, one for T cell staining (Table Ex3.5) and one for myeloid cell staining (Table Ex3.6).
For Study 7628 Colon26-XPD, tumors and spleens were collected from mice on Day 5 and Day 12 post initiation of treatment. Single cell suspensions were generated according to RDS-2016-00163. Briefly, the tissues were minced with scissors followed by mechanical homogenization in dissociation buffer containing RPMI 1640 (Gibco, Life Technologies) with Liberase™ research grade collagenase (Roche) and DNase 1 recombinase (Roche) using the GentleMAX (Miltenyi). Following a 15 minute incubation at 37° C. in a water bath, the homogenates were quenched with 10% FBS and filtered on a […] cell strainer (Falcon). At the end of this process, the single cell suspension of cells was obtained and 2 million cells were plated into 96-well plates for staining with either a T cell or myeloid cell panel of antibodies.
For Study 8063 Colon 26-XPD, tumors and lymph nodes were collected and then processed both mechanically and enzymatically into a single cell suspension according to RDS-2017-00141. The digestion process involves 4-5 consecutive digestion cycles with new digestion buffer containing DNase I (Roche), Collagenase P (Roche), and dispase (Gibco) in each cycle. At the end of this process, cell suspension was filtered on a […] cell strainer to obtain single cell suspension. Two million cells were plated into 96 well plates for staining of T cell panel or myeloid cell panel antibodies.
Following this, the samples were blocked with a 1:50 dilution of mouse Fc block (Miltenyi Biotec) for 30 minutes on ice. The samples were spun for 5 minutes at 1500 rpm and then stained with a fluorochrome-conjugated surface antibody mix as shown in Table Ex3.5 and Ex3.6 for 60 minutes. During the blocking and staining procedures, cells were maintained at 4° C. and protected from light.
For intracellular staining of T cells, after surface staining, the plates were spun again for 5 minutes at 1500 rpm, and then the cells were fixed and permeabilized overnight using a fix/perm kit (eBioscience). The cells were washed with a permeabilization buffer and then stained with the intracellular antibodies for 1 hour at 4° C. in the dark. The plates were washed twice in permeabilization buffer and suspended in 200 μl PBS. Data acquisition was performed using the LSRFortessa™ (BD Biosciences).
Analysis was performed after each run using FLOWJO v10.0.7 software from Treestar. […]

[2] = system: AH1-specific CD8+ T cells; assay: Anti-tumor memory T cell responses: IFN-γ ELISPOT with AH1 peptide and H2Ld-AH1 dextramers on splenocytes; format: cell-based, mouse
Source text: Consistent with this, we observed an increase in frequency of AH1-specific CD8^+ T cells in spleens of mice treated with HDM201 or combination of HDM201 with anti-PD1 antibody induced responders as detected by H2Ld-AH1 dextramers. (FIGS. 28 and 29).

[3] = system: human HSAX2655 (liposarcoma) PDX; assay: TGI PK/PD modelling, human HSAX2655 (liposarcoma) PDX rat; format: in vivo
Experimental: (§1) Compartmental population PK modeling of NVP-HDM201 was used to estimate the individual average plasma concentration for Cycle 1 and to allow comparison with preclinical average concentration for tumor stasis derived by PK/PD tumor growth modeling. […] The dashed line at concentration of ≈19 ng/mL represents average tumor stasis determined from PK/PD modeling of preclinical data from a liposarcoma (HSAX2655) patient-derived xenograft rat model.

[4] = system: human SJSA-1 (osteosarcoma) xenograft; assay: TGI PK/PD modelling, human SJSA-1 (osteosarcoma) xenograft rat; format: in vivo; conditions: human SJSA-1 xenograft rat; for Average concentration for tumor stasis: TGI PK/PD modelling
Experimental: To further support the preferred dose for HDM201, compartmental PK modeling was used to estimate the individual average concentration per cycle for the 9 patients treated at 120 mg on regimen 1B (FIG. 15). For the majority of patients (7 out of 9), the estimated average drug concentrations per cycle were near or above the most conservative average tumor stasis concentration of ˜41 ng/mL per cycle determined from PKPD modeling of preclinical data (human SJSA-1 xenograft rat model).
as §1

COc1ncc(-c2nc3c(n2C(C)C)[C@H](c2ccc(Cl)cc2)N(c2cc(Cl)cn(C)c2=O)C3=O)c(OC)n1 [HDM201, (S)-5-(5-Chloro-1-methyl-2-oxo-1,2-dihydro-pyridin-3-yl)-6-(4-chloro-phenyl)-2-(2,4-dimethoxy-pyrimidin-5-yl)-1-isopropyl-5,6-dihydro-1H-pyrrolo[3,4-d]imidazol-4-one]
% CD103+CD11+ DCs [1]: increased
% PD1+CD45+ cells [1]: increased
CD8/Treg ratio [1]: increased
PDL1 expression (MFI) in CD45− cells [1]: induced
newly primed % Tbet+EOMES−CD8+/CD45+ T cells [1]: increased
% CD11C+CD45+ cells in tumors ([1]; Days 5 and 12): increased
CD8 T cells in tumors ([1]; Days 5 and 12): increased
frequency of AH1-specific CD8+ T cells in spleens (H2Ld-AH1 dextramers) ([2]; responder mice): increase
antigen-specific production of IFN-γ by T cells (ELISPOT) ([2]; splenocytes of responder mice stimulated with AH1 peptide): detected in all responders
Average concentration for tumor stasis [3]: 19 ng/mL
Average concentration for tumor stasis ([3]; listed as NVP-HDM201): ≈ 19 ng/mL
Average concentration for tumor stasis [4]: ~41 ng/mL
Average concentration for tumor stasis ([4]; listed as NVP-HDM201): ≈ 41 ng/mL
average concentration for 95% tumor regression [4]: 120 ng/mL
average concentration for 95% tumor regression ([4]; listed as NVP-HDM201): 125 ng/mL
